Assay results from US8022057B2, “MAPK/ERK kinase inhibitors” (Takeda Pharmaceutical Company Limited, priority 2007, dated 2011).

Molecular target: T1, MEK1 (Homo sapiens, UniProt Q02750, DEL33-52/S218E/S222D)
T1 construct: 6-histidine tag (pFastbac leader) (N); made in house; host or cells: Spodoptera frugiperda Sf9 (baculovirus) for MEK1; E. coli for GST-ERK1
Experiment: MEK1 inhibition, fluorescence polarization (IMAP) assay with ERK1 and FI-Erktide
Format: biochemical
Settings: 1 nM MEK1, 25 nM ERK1, 400 μM ATP, 500 nM FI-Erktide, 22 min at room temperature; read-out: IC50 of Exemplified Compounds Against MEK1
Method: The deletion from residues 32-51, and the two mutations, S218E and S222D, may be obtained by quick change PCR.
Reaction product is determined quantitatively by fluorescent polarization using progressive IMAP beads from Molecular Devices.
The reaction mixture may then be incubated at room temperature for 22 min, and quenched and developed by addition of 20 μl of 1:200 dilution of progressive IMAP beads (Molecular Devices) in 80% buffer A, 20% buffer B and 0.003% Tween 20. Fluorescence polarization of the resulting reaction mixtures may be measured after a 1 hour incubation at room temperature.
IC50 values may be calculated by non-linear curve fitting of the compound concentrations and fluorescence polarization signal to the standard IC50 equation.

T1 sequence (Q02750 with tags, fused parts or gaps DEL33-52/S218E/S222D): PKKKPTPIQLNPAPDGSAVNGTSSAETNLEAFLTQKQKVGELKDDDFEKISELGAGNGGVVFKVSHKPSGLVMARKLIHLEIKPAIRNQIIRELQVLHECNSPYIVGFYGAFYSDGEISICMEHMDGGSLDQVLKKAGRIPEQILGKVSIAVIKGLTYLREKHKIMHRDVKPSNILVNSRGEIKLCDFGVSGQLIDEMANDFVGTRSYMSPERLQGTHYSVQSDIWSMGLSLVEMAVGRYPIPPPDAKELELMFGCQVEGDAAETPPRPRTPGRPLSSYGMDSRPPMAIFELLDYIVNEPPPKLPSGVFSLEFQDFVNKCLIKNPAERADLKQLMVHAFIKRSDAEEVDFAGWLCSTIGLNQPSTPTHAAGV

IC50, ≤ 100 nM:
C#Cc1ccc(Nc2c(C(=O)NOCCO)c3n(c(=O)c2F)CCC3)c(F)c1 [Example 11, 7-(4-Ethynyl-2-fluorophenylamino)-6-fluoro-N-(2-hydroxyethoxy)-5-oxo-1,2,3,5-tetrahydroindolizine-8-carboxamide]
O=C(NOCCO)c1c(Nc2ccc(I)cc2F)c(F)c(=O)n2c1CCCC2 [Example 7, 7-Fluoro-8-(2-fluoro-4-iodophenylamino)-N-(2-hydroxyethoxy)-6-oxo-2,3,4,6-tetrahydro-1H-quinolizine-9-carboxamide]
O=C(NOCCO)c1c(Nc2ccc(I)cc2F)c(Cl)c(=O)n2c1CCC2 [Example 10, 6-Chloro-7-(2-fluoro-4-iodophenylamino)-N-(2-hydroxyethoxy)-5-oxo-1,2,3,5-tetrahydroindolizine-8-carboxamide]
O=C(NOC[C@H](O)CO)c1c(Nc2ccc(I)cc2F)c(F)c(=O)n2c1CCC2 [Example 2, (R)—N-(2,3-Dihydroxypropoxy)-6-fluoro-7-(2-fluoro-4-iodophenylamino)-5-oxo-1,2,3,5-tetrahydroindolizine-8-carboxamide]
O=C(NOCCO)c1c(Nc2ccc(I)cc2F)c(F)c(=O)n2c1CCC2 [Example 4, 6-Fluoro-7-(2-fluoro-4-iodophenylamino)-N-(2-hydroxyethoxy)-5-oxo-1,2,3,5-tetrahydroindolizine-8-carboxamide]
O=C(NOC[C@@H](O)CO)c1c(Nc2ccc(I)cc2F)c(F)c(=O)n2c1CCC2 [Example 5, (S)—N-(2,3-Dihydroxypropoxy)-6-fluoro-7-(2-fluoro-4-iodophenylamino)-5-oxo-1,2,3,5-tetrahydroindolizine-8-carboxamide]
O=C(NOC(CO)CO)c1c(Nc2ccc(I)cc2F)c(F)c(=O)n2c1CCC2 [Example 3, N-(1,3-Dihydroxypropan-2-yloxy)-6-fluoro-7-(2-fluoro-4-iodophenylamino)-5-oxo-1,2,3,5-tetrahydroindolizine-8-carboxamide]
O=C(O)c1c(Nc2ccc(I)cc2F)c(F)c(=O)n2c1CCC2 [Example 1, 6-Fluoro-7-(2-fluoro-4-iodophenylamino)-5-oxo-1,2,3,5-tetrahydroindolizine-8-carboxylic acid]
Cc1c(Nc2ccc(I)cc2F)c(C(=O)NOCCO)c2n(c1=O)CCC2 [Example 8, 7-(2-Fluoro-4-iodophenylamino)-N-(2-hydroxyethoxy)-6-methyl-5-oxo-1,2,3,5-tetrahydroindolizine-8-carboxamide]
